{
  "source": "patent US12458666B2",
  "about": "(DOUBLE BOND PHARMACEUTICALS AB, priority 2019, dated 2025)",
  "key": {"[1]": {"conditions": "long-term intravenous therapy; cited from earlier work"}, "[2]": {"conditions": "for median ferritin level: thirteen patients who took study medication according to protocol for 12 weeks, baseline 42 (32-57.5); for Hemoglobin / hsCRP / Hepcidin / Transferrin / Iron / TSAT (transferrin saturation) / Ferritin: intention to treat, 100 mg tablet orally twice a day; for Hemoglobin: 20 patients, baseline 144; for hsCRP: baseline 2.0; for Hepcidin: baseline 2.5; for Transferrin: baseline 2.6; for Iron: baseline 13.5; for TSAT (transferrin saturation): baseline 20; for Ferritin: baseline 47", "protocol": "Most of these patients were screened during the year 2018 until January 2019 were the target population. […] These 42 patients defined by inclusion and exclusion criteria for participation were called by phone and informed about the study. After having given oral and written consent to participate blood sampling was performed to confirm or reject the presence of non-anemic ID.\n• All patients with a case record diagnosis of HF, both those with preserved EF or reduced EF were potentially eligible, provided there were no contraindications to participate. • The diagnosis of HF was on symptoms and an ECHO verified reduction of cardiac function, systolic and/or diastolic dysfunction. Those with an EF=<40% were classified as HFrEF and those with EF>40% as preserved HF.\n(§1) The study was planned as an open pilot study without placebo control. The study was performed at the research unit at the department of Medicine-Geriatric, a special heart failure case record with laboratory data was filed before the start of the study, after six weeks and after 3 months (±2 weeks) at the end of study. Adverse reactions and side effects were registered at each visit.\nInofer® is an oral product against ID in a form of film-coated tablets. […] The patients are given one tablet ( )twice a day during a period of at least three months.\n1 tablet was taken in the morning and 1 tablet was taken in the evening at bedtime for at least 3 months. The tablet was not taken with food.\nBlood sampling was performed according to local and current guidelines. Blood was centrifuged, divided into aliquots and stored at minus 80° C. in a safe deposit box, Biobank Västerbotten, until analysis. Hemoglobin, CRP, ferritin, serum iron, TSAT and hepcidin were analyzed before start, at 6 weeks and 3 months after treatment.\nContinuous variables are presented as means ±standard deviation for normally distributed values, median and interquartile range for skewed variables, and numbers and percentages for categorical variables. Due to skewed variables for ferritin and TSAT non-parametric test was used for related or independent data. Data were analysed using IBM SPSS Software version 24 (IBM Corp. Chicago, Illinois, USA)."}, "[3]": {"protocol": "as §1"}, "[4]": {"conditions": "irrespective if iron was given orally or intravenously; cited from earlier work"}, "[5]": {"conditions": "cited from earlier work; for Ferritin level after treatment: HF, ejection fraction <40% and anaemia"}, "[6]": {"conditions": "cited from earlier work"}, "[7]": {"conditions": "after oral iron succinate treatment"}, "[8]": {"conditions": "percentage of patients exhibiting the symptom in the study"}},
  "note": "Where two headings read alike, the source gives them in different places.",
  "data": [
    {"compound": "ferric carboxymaltose", "values": [
      {"measurement": "symptomatic and morbidity effects in patients with HF", "setting": "[1]", "result": "beneficial symptomatic and morbidity effects"}
    ]},
    {"compound": "O=C([O-])CCC(=O)[O-].[Fe+2]", "note": "[iron succinate, ferrous succinate]", "values": [
      {"measurement": "increase of ferritin levels in patients with HFpEF compared with HFrEF", "setting": "[2]; [7]", "result": "about the same magnitude"},
      {"measurement": "uptake (levels) in females compared with males", "setting": "[2]; [7]", "result": "increased rather equally"},
      {"measurement": "median ferritin level", "setting": "[2]; at 6 weeks", "result": "83 (61-110.5) μg/L"},
      {"measurement": "median ferritin level", "setting": "[2]; at 12 weeks", "result": 87, "unit": "µg/L"},
      {"measurement": "Hemoglobin", "setting": "[2]; median at 6 weeks", "result": 138, "unit": "g/L"},
      {"measurement": "hsCRP", "setting": "[2]; median at 6 weeks", "result": 2.0, "unit": "mg/L"},
      {"measurement": "Hepcidin", "setting": "[2]; median at 6 weeks, p=0.006", "result": 4.8, "unit": "nmol/L"},
      {"measurement": "Transferrin", "setting": "[2]; median at 6 weeks, p=0.038", "result": 2.4, "unit": "g/L"},
      {"measurement": "Iron", "setting": "[2]; median at 6 weeks", "result": 16.5, "unit": "µmol/L"},
      {"measurement": "TSAT (transferrin saturation)", "setting": "[2]; median at 6 weeks, p=0.046", "result": 27, "unit": "%"},
      {"measurement": "Ferritin", "setting": "[2]; median at 6 weeks, p=0.009", "result": 78, "unit": "µg/L"},
      {"measurement": "Hemoglobin", "setting": "[2]; median at 12 weeks", "result": 142, "unit": "g/L"},
      {"measurement": "hsCRP", "setting": "[2]; median at 12 weeks", "result": 1.9, "unit": "mg/L"},
      {"measurement": "Hepcidin", "setting": "[2]; median at 12 weeks, p=0.026", "result": 4.2, "unit": "nmol/L"},
      {"measurement": "Transferrin", "setting": "[2]; median at 12 weeks, p=0.009", "result": 2.3, "unit": "g/L"},
      {"measurement": "Iron", "setting": "[2]; median at 12 weeks", "result": 16.0, "unit": "µmol/L"},
      {"measurement": "TSAT (transferrin saturation)", "setting": "[2]; median at 12 weeks, p=0.043", "result": 25, "unit": "%"},
      {"measurement": "Ferritin", "setting": "[2]; median at 12 weeks, p=0.001", "result": 85, "unit": "µg/L"},
      {"measurement": "TSAT at EOS", "setting": "[2]; one patient who stopped study medication after 3.5 weeks, baseline 16", "result": 21, "unit": "%"},
      {"measurement": "ferritin level at EOS", "setting": "[2]; one patient who stopped study medication after 3.5 weeks, baseline 198", "result": 237, "unit": "µg/L"},
      {"measurement": "increase of ferritin level from baseline to EOS", "setting": "[2]; one patient who took only one tablet per day for 2.5 weeks", "result": 38, "unit": "%"},
      {"measurement": "increase of ferritin level from baseline to EOS", "setting": "[2]; one patient who took only one tablet per day for 6 weeks", "result": 174, "unit": "%"},
      {"measurement": "increase of ferritin level from baseline to EOS", "setting": "[2]; one patient who took only one tablet per day for 7.5 weeks", "result": 95, "unit": "%"},
      {"measurement": "patients who stopped study medication because of vomiting or diarrhea", "setting": "[3]; of 20 patients", "result": "Three"},
      {"measurement": "patients who stopped study medication before EOS", "setting": "[3]; of 20 patients", "result": "four"},
      {"measurement": "Breathlessness, %", "setting": "[3]; [8]", "result": 90, "unit": "%"},
      {"measurement": "Constipation, %", "setting": "[3]; [8]", "result": 20, "unit": "%"},
      {"measurement": "Diarrhea, %", "setting": "[3]; [8]", "result": 5, "unit": "%"},
      {"measurement": "Stomic pain, %", "setting": "[3]; [8]", "result": 10, "unit": "%"},
      {"measurement": "Tiredness, %", "setting": "[3]; [8]", "result": 80, "unit": "%"},
      {"measurement": "uptake compared to other iron compounds", "setting": "[4]", "result": "most favourable uptake"}
    ]},
    {"compound": "iron sucrose", "values": [
      {"measurement": "Ferritin level after treatment", "setting": "[5]; intravenous 200 mg per week for 5 weeks, from 167±149", "result": "293 ± 270", "unit": "ng/mL"}
    ]},
    {"compound": "O=S(=O)([O-])[O-].[Fe+2]", "note": "[ferrous sulphate]", "values": [
      {"measurement": "increase of TSAT, oral vs. intravenous administration of iron", "setting": "[5]; oral 200 mg 3 times a day compared with intravenous iron sucrose", "result": "less"},
      {"measurement": "Ferritin level after treatment", "setting": "[5]; oral 200 mg 3 times a day, from 115±141", "result": "218 ± 189", "unit": "ng/mL"}
    ]},
    {"compound": "iron polysaccharide", "values": [
      {"measurement": "uptake in iron deposits", "setting": "[6]; high dose oral, 16 weeks, HFrEF", "result": "marginal uptake"},
      {"measurement": "exercise capacity over 16 weeks", "setting": "[6]; high dose oral, HFrEF", "result": "did not improve exercise capacity"},
      {"measurement": "TSAT increase", "setting": "[6]; oral 150 mg twice daily for 16 weeks, HFrEF (<40%) and iron deficiency, CI −3 to 7, placebo 0, p=0.003", "result": 2, "unit": "%"},
      {"measurement": "Ferritin increase", "setting": "[6]; oral 150 mg twice daily for 16 weeks, HFrEF (<40%) and iron deficiency, CI −8 to 38, placebo 1", "result": 18, "unit": "ng/mL"}
    ]}
  ]
}
